Results: patent US11555210B2, “Microbe having increased tolerance to phenolic fermentation inhibitors” (University of Ottawa, priority 2018, dated 2023)
Entries after “also recorded” stand apart in the source; their conditions may differ.

Experiments:
Format in all cases: cell-based, S. cerevisiae
Zwf1-GFP = assay: co-localization of Zwf1-GFP with mitochondrial and ER markers
Description: (§1) For co-localization studies, images were obtained as Z-stacks. Co-localization of the fluorescence signals were quantified using the IMARIS software 9.2.1 (Bitplane; http://www.bitplane.com) and a Manders' overlap co-efficient (Manders et al., 1993, Journal of Microscopy. 169, 375-382) was used to evaluate the fraction of RFP pixels (organelle marker) also positive for GFP pixels ([…]). The closer the value is to one, the higher the level of co-localization. The analysis was complemented by performing an object-based quantification where the percentage volume of ROS that localized to the mitochondria and endoplasmic reticulum was measured.
A strain expressing endogenously tagged Zwf1-GFP and either the mitochondrial marker CIT1-RFP or the ER marker SEC13-RFP were imaged as described in Example 5 both before and after 2 hours of treatment with 2 mM coniferyl aldehyde. […] Using the object-based analysis, the percentage volume of Zwf1 localizing to the mitochondria was measured as 47.10±8.04%. Likewise, co-localization of Zwf1-GFP to the ER marker Sec13-RFP was observed, though to a lesser extent, and confirmed by a quantitative analysis using a Mander's overlap co-efficient (0.22±0.07). (FIG. 11B).

rpe1Δ (YKB4795) = assay: dot assay on YPD agar plates; conditions: 1 mM coniferyl aldehyde, 48 hr at 30° C.
Experimental: (§2) Wild type (BY4741) along with zwf1Δ (YKB4794), sol2Δ (YKB4847), sol3Δ (YKB4848), gnd1Δ (YKB4797), gnd2Δ (YKB4850), rpe1Δ (YKB4795), tal1Δ (YKB4851) and tkl1Δ (YKB4796) deletion strains were grown to mid log phase in YPD medium prior to being diluted into fresh medium to an OD600of 0.1. Four 10-fold serial dilutions were spotted onto YPD agar plates containing either 1 mM coniferyl aldehyde (1 mM CA) or no coniferyl aldehyde (0 mM CA). Plates were incubated for 48 hr at 30° C. and images are representative of three biological replicates.

gnd1Δ (YKB4797) = assay: dot assay on YPD agar plates; conditions: 1 mM coniferyl aldehyde, 48 hr at 30° C.
Experimental: as §2

tkl1Δ (YKB4796) = assay: dot assay on YPD agar plates; conditions: 1 mM coniferyl aldehyde, 48 hr at 30° C.
Experimental: as §2

wild-type yeast (BY4741) = assay: ROS measurement by H2DCFDA fluorescence microscopy; conditions: 2 mM CA, 10 mM FA or 50 mM 4-HBA, 1 hour at 30° C.
Experimental: Measurement of ROS was performed as previously described (Kennedy et al., 2016, Sci Rep. 6, 19332). Briefly cells were incubated with 10 μM 2′,7′-dichlorodihydrofluorescein diacetate (H2DCFDA; Invitrogen cat. #D399) for 15 min in the dark. […] An aliquot of 5 μL was spotted onto glass slides and covered with a cover slip prior to imaging. All images were acquired using a Leica DMI 6000 florescent microscope (Leica Microsystems GmbH, Wetzler Germany), equipped with a Sutter DG4 light source (Sutter Instruments, California, USA), Ludl emission filter wheel with Chroma band pass emission filters (Ludl Electronic Products Ltd., NY, USA) and Hamamatsu Orca AG camera (Hamamatsu Photonics, Herrsching am Ammersee, Germany). Images were acquired at 0.2 μm steps across 6 μm using a 63× oil-immersion objective with a 1.4 numerical aperture. Analysis of H2DCFDA fluorescence was performed using Velocity Software V4 (Perkin Elmer). Image J software was used to quantify the H2DCFDA fluorescence signal in cells as described by Schneider et al (Schneider et al., 2012, Nature Methods, 9, 671-675) with a slight modification. Briefly, background fluorescence was subtracted from the images and the total fluorescence of all the cells in the image was measured and divided by the number of cells in the image. The images contained a minimum of 100 cells. The ratio of fluorescence per cell of treated cultures was divided by that of untreated cultures to eliminate background endogenous ROS production.

zwf1Δ (YKB4794) = assay: dot assay on YPD agar plates; conditions: 10 mM FA, 35 mM 4-HBA or 1 mM CA, 48 hr at 30° C., compared to wild type
Experimental: as §2
(§3) Wild type (BY4741), bna7Δ (YKB4649) and zwf1Δ (YKB4794) were grown to mid log phase in YPD medium prior to being diluted into fresh medium to an OD600 of 0.1. Four 10-fold serial dilutions were spotted onto YPD agar plates containing either no compound (Untreated), 10 mM ferulic acid (FA), 35 mM 4-hydroxybenzoic acid (4-HBA) or 1 mM coniferyl aldehyde (CA). Plates were incubated for 48 hr at 30° C. and images are representative of three biological replicates.

[1] = system: wild-type cells expressing PEX3-RFP, SEC13-RFP or CIT1-RFP; assay: co-localization of ROS signal with organelle markers
Description: as §1

bna7Δ (YKB4649) = assay: serial dilution spot assay on YPD agar plates; conditions: 10 mM FA, 35 mM 4-HBA or 1 mM CA, 48 hr at 30° C.
Experimental: In addition, deletion mutants were generated for genes involved in the tryptophan catabolic pathway and their growth was assayed on solid media containing 10 mM ferulic acid. In particular, wild type yeast (BY4741) along with deletion mutants aro8Δ (YKB4799), bna7Δ (YKB4649), bna2Δ (YKB4798), bna6Δ (YKB4844), bna5Δ (YKB4845), bna4Δ (YKB4846) and bna1Δ (YKB4729) were grown to mid log phase ([…] 0.5-0.6) in YPD medium prior to being diluted to an OD600 of 0.1. Four 10-fold serial dilutions were spotted onto YPD agar plates either containing 10 mM ferulic acid or no ferulic acid. Plates were incubated for 48 hr at 30° C. Images of the plates were taken with the ChemiDoc XRS Molecular Imaging system (Biorad) and images are representative of three biological replicates.
as §3, with “Experiments were also conducted to determine if deletion of BNA7 could provide protection to 4-hydroxybenzoic acid or coniferyl aldehyde (CA). Wild” for “Wild”, “(BY4741) and bna7A” for “(BY4741), bna7Δ”, “strains” for “and zwf1Δ (YKB4794)”

[2] = 2 hours of treatment with 2 mM coniferyl aldehyde
[3] = 2 mM coniferyl aldehyde, object-based analysis

COc1cc(C=CC=O)ccc1O [coniferyl aldehyde, 4-hydroxy-3-methoxycinnamaldehyde]
Mander's overlap co-efficient, Zwf1-GFP with ER marker Sec13-RFP (Zwf1-GFP; [2]): 0.22±0.07 | Manders' overlap coefficient, Zwf1-GFP with mitochondrial marker CIT1-RFP (Zwf1-GFP; [2]): 0.34±0.07 | percentage volume of Zwf1 localizing to the mitochondria (Zwf1-GFP; 2 hours, 2 mM coniferyl aldehyde, object-based analysis): 47.10±8.04% | growth of rpe1Δ on agar plates (rpe1Δ (YKB4795)): no growth | growth of gnd1Δ on agar plates (gnd1Δ (YKB4797)): no growth | growth of tkl1Δ on agar plates (tkl1Δ (YKB4796)): no growth | subcellular distribution of induced ROS (wild-type yeast (BY4741)): formed punctate structures within the cell | growth of zwf1Δ on agar plates (zwf1Δ (YKB4794)): no growth; also recorded: limited growth | Manders' overlap co-efficient, ROS with ER marker SEC13-RFP ([1]; 2 mM coniferyl aldehyde): 0.13±0.1 | Manders' overlap co-efficient, ROS with mitochondria marker CIT1-RFP ([1]; 2 mM coniferyl aldehyde): 0.45±0.04 | percentage volume of ROS that localized to the mitochondria [1, 3]: 54.1±17.29% | total volume of ROS that localized to the ER [1, 3]: 26.5±12.8% | localization of ROS to peroxisomes ([1]; 2 mM coniferyl aldehyde, peroxisome marker PEX3-RFP): did not localize to the peroxisomes | mitochondrial fragmentation ([1]; after 2 hours of coniferyl aldehyde treatment): high degree of mitochondrial fragmentation | resistance of bna7Δ / protection by deletion of BNA7 (bna7Δ (YKB4649)): does not provide protection
